These results are taken from patent US20150284360A1, “AMIDE DERIVATIVES OF ANILINE-RELATED COMPOUNDS AND COMPOSITIONS THEREOF” (C&C BIOPHARMA, LLC, priority 2014, published 2015).

A short description of data set [1]: Solubility of a compound in water. It is filed as physicochemical. The note with it: compound added until saturated. How it is done:
Solubility of a compound was obtained by adding the compound into water of known volume (e.g. 1 mL) until saturated, measuring the amount of the compound added, and obtaining the solubility of the compound in water (mg/mL) (Table 9).

The nature of data set [2]: In vitro conversion of prodrug Lys-CC30.2HCl to parent drug CC30 in rat plasma (HPLC-MS). The format is in vitro ADME. Particulars: for % Conversion of prodrug to CC30 / HPLC-MS Peak Area of Prodrug, Lys-CC30•2HCl: rat plasma; for HPLC-MS Peak Area of Parent Drug, CC30: formed from Lys-CC30•2HCl in rat plasma. How it is done:
Lys-CC30.2HCl (2.53 mg) was dissolved in 200 μl of water to obtain an aqueous solution concentration of 12.6 mg/ml. 4 μl of the Lys-CC30.2HCl solution was thoroughly mixed with 100 μl of rat plasma. This mixture was divided into 10 aliquots (10 μl) placed in 1.5 ml tubes. One tube was placed on ice and was used as the 0 time point. The other 9 samples were placed in an incubator at 37° C. At 5, 10, 30, 60, 120, and 240 minutes, a tube was taken out from incubation and placed on ice to stop or slow down the reaction. The samples were diluted with water (50-fold), mixed, and pelleted by centrifugation at 4° C. and 14,000 rpm for 5 min. The supernatant (˜200-300 μl) was used for HPLC-MS analysis. The % conversion was calculated by dividing the peak area of the parent drug by the peak area of the prodrug at time 0, and then multiplying by 100 (Table 10).
After 60 minutes of incubation, almost half (44.7%) of the Lys-CC30.2HCl prodrug converted to CC30 (Table 10).

Data set [3] can be described thus: In vivo conversion of prodrug Lys-CC30.2HCl to parent drug CC30 in a rat after intravenous administration (plasma, HPLC-MS). Further details: species or system Sprague-Dawley rat. Particulars: for HPLC-MS Peak Area of Prodrug, Lys-CC30•2HCl in the rat: rat plasma, Lys-CC30.2HCl 2 mg/kg intravenous; for HPLC-MS Peak Area of Parent drug, CC30 in the rat: rat plasma after Lys-CC30.2HCl 2 mg/kg intravenous. The protocol:
A Male Sprague-Dawley rat weighing 200-220 g was used to study the pharmacokinetics of the prodrug Lys-CC30.2HCl. Food was prohibited for 12 hours before the experiment, but water was freely available. Blood samples (0.2 ml) were collected through orbital venous plexus blood into heparinized 1.5 ml polyethene tubes at 0, 2, 5, 10, 15, 20, 30, 45 and 60 minute time points after the intravenous administration of Lys-CC30.2HCl (2 mg/kg). The samples were immediately centrifuged at 3000 g for 10 minutes. The plasma obtained (100 μl) was stored at −20° C. until analyzed. Plasma Lys-CC30.2HCl and parent drug CC30 concentrations in the collected blood samples were analyzed by HPLC-MS.
The parent drug was detected in the rat for at least 60 minutes, whereas the prodrug was no longer detected after 20 minutes (Table 11)(FIG. 10B).

A short description of data set [4]: Cyclization in simulated gastric fluid (SGF), acidic condition. Particulars: SGF pH=1.3 with pepsin, 37° C., 4 hours. The format is physicochemical. The protocol:
Simulated gastric fluid (SGF) was prepared by thoroughly mixing diluted hydrochloric acid (16.4 ml), water (800 ml), and 10 g of pepsin together, and then bring the volume up to 1000 ml with water (pH=1.3). Diluted hydrochloric acid was prepared by mixing 234 ml of concentrated hydrochloric acid with water to a final volume of 1000 ml. Lys-CC30.2HCl (2.53 mg) or CC30 were separately dissolved in 200 μl of water to obtain an aqueous solution concentration of 12.6 mg/ml. 4 μl of the Lys-CC30.2HCl solution and the CC30 solution were thoroughly mixed with 1 ml of SGF in separate tubes. The mixtures were placed in an incubator at 37° C. for 4 hours. The samples were diluted with water 50-fold, mixed, and pelleted by centrifugation at 4° C. and 14,000 rpm for 5 min. The supernatants (˜200-300 μl) were used for HPLC-MS analysis.

[5] abbreviates: after Lys-CC30.2HCl 2 mg/kg intravenous.

≈ marks a conversion by molar mass, not a printed value.

On to `Cl.Cl.NCCCC[C@H](N)C(=O)Nc1ccccc1NC(=O)CCCCCC(=O)Nc1cccc(Br)c1` [Lys-CC30•2HCl], for which the “Solubility in Water” value in data set [1] is 750 mg/mL. The “% Conversion of prodrug to CC30” value came to 14.2% in data set [2] (37° C., 5 min); 18.3% in data set [2] (37° C., 10 min); 33.0% in data set [2] (37° C., 30 min); 44.7% in data set [2] (37° C., 60 min); 44.7% in data set [2] (37° C., 60 min, listed as Lys-CC30.2HCl); 69.2% in data set [2] (37° C., 120 min). Besides, the “% Conversion of prodrug to CC30” value in data set [2] (37° C., 240 min) is reported as 71.8%; in data set [2] (time 0 min, parent peak area / prodrug peak area at time 0 x 100), 10.0%. Moreover, the “HPLC-MS Peak Area of Prodrug, Lys-CC30•2HCl” value in data set [2] (37° C., 5 min) was found to be 5900784; in data set [2] (37° C., 10 min) it was 5623041; in data set [2] (37° C., 30 min), 5199304; in data set [2] (37° C., 60 min), 3678701; in data set [2] (37° C., 120 min), 921181; in data set [2] (37° C., 240 min), 498331. The “HPLC-MS Peak Area of Prodrug, Lys-CC30•2HCl” value in data set [2] (37° C., time 0 min (on ice)) was determined as 6182672. In addition, the “Time after which the prodrug was no longer detected in the rat” value in data set [3] (setting [5]) was 20 min. For the same compound, in data set [3] (after injection of Lys-CC30.2HCl 2 mg/kg intravenous, time zero), the “Conversion in the rat to the parent drug CC30 (in words)” value was “immediately started converting”. Also, the “HPLC-MS Peak Area of Prodrug, Lys-CC30•2HCl in the rat” value in data set [3] (0 min) is 5199661; in data set [3] (2 min) it was 2388965; in data set [3] (5 min), 838012; in data set [3] (10 min), 173555; in data set [3] (15 min), 40200; in data set [3] (20 min), 8674. The “Formation of cyclized product (in words)” value in data set [4] is “No similarly cyclized product was formed”.

Regarding `Nc1ccccc1NC(=O)CCCCCC(=O)Nc1cccc(Br)c1` [CC30], the “Solubility in Water” value in data set [1] amounted to 0.006 mg/mL (≈ 14.8 µM). Moreover, the “HPLC-MS Peak Area of Parent Drug, CC30” value in data set [2] (37° C., 5 min) came out at 880074; in data set [2] (37° C., 10 min), 1131442; in data set [2] (37° C., 30 min), 2039869; in data set [2] (37° C., 60 min), 2762843; in data set [2] (37° C., 120 min) it was 4280514; in data set [2] (37° C., 240 min) it was 4438887. Also, the “HPLC-MS Peak Area of Parent Drug, CC30” value in data set [2] (time 0 min (on ice)) is recorded as 617276. Besides, the “Time for which the parent drug was detected in the rat” value in data set [3] (setting [5]) is given as “at least 60 minutes”. The “HPLC-MS Peak Area of Parent drug, CC30 in the rat” value in data set [3] (0 min) turned out to be 4792335; in data set [3] (2 min), 2994581; in data set [3] (5 min), 2162228; in data set [3] (10 min), 1225981; in data set [3] (15 min) it was 712348; in data set [3] (20 min), 425079. The entries for the “HPLC-MS Peak Area of Parent drug, CC30 in the rat” value in data set [3] (30 min), in data set [3] (45 min) and in data set [3] (60 min) were 232663, 199152 and 44686, respectively. The “Fraction that formed an inactive cyclized product” value in data set [4] was 5%.
